# The supplement of paper PMC10307832
# What was measured:
# Experiment in all cases: relative viability (nuclei count vs DMSO), 5 days (fraction); higher = more cells survive
# TGX 221 + Navitoclax = compound: CC1=CN2C(=O)C=C(N=C2C(=C1)C(C)NC3=CC=CC=C3)N4CCOCC4 [TGX 221] + CC1(C)CCC(c2ccc(Cl)cc2)=C(CN2CCN(c3ccc(C(=O)NS(=O)(=O)c4ccc(N[C@H](CCN5CCOCC5)CSc5ccccc5)c(S(=O)(=O)C(F)(F)F)c4)cc3)CC2)C1 [Navitoclax] (partner 0.5 µM)
# Procedure, shortened: (§1)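 The day after seeding in 1536-well plates, lung cancer cell lines were treated by pin tool with a single drug, or with a fixed anchor-drug dose together with five library-drug doses (not always all listed) in √10 steps. After 5 days, a combined fix-and-stain solution (final 0.05% Triton X-100, 1% formaldehyde, 1 ug/ml Hoechst) was added. Nuclei counted on 4× images gave relative viability as treated counts over vehicle counts, reported as the median of duplicate plates.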
# [1] = compound: O=C(CCCCCCNC(=O)c1cnc(N(c2ccccc2)c2ccccc2)nc1)NO [Ricolinostat] + CC(=O)c1c(C)c2cnc(Nc3ccc(N4CCNCC4)cn3)nc2n(C2CCCC2)c1=O [Palbociclib] (partner 0.5 µM)
# Procedure, shortened: as §1
# [2] = compound: O=C(CCCCCCNC(=O)c1cnc(N(c2ccccc2)c2ccccc2)nc1)NO [Ricolinostat] + CCNC(=O)c1noc(-c2cc(C(C)C)c(O)cc2O)c1-c1ccc(CN2CCOCC2)cc1 [Luminespib] (partner 0.01 µM)
# Procedure, shortened: as §1
# Ricolinostat + Lapatinib = compound: O=C(CCCCCCNC(=O)c1cnc(N(c2ccccc2)c2ccccc2)nc1)NO [Ricolinostat] + CS(=O)(=O)CCNCc1ccc(-c2ccc3ncnc(Nc4ccc(OCc5cccc(F)c5)c(Cl)c4)c3c2)o1 [Lapatinib] (partner 2 µM)
# Procedure, shortened: as §1
Cell Line,relative viability (TGX 221 + Navitoclax; first compound 0.08 µM),relative viability (TGX 221 + Navitoclax; first compound 0.253 µM),relative viability (TGX 221 + Navitoclax; first compound 0.8 µM),relative viability (TGX 221 + Navitoclax; first compound 2.53 µM),relative viability (TGX 221 + Navitoclax; first compound 8 µM),relative viability ([1]; first compound 0.08 µM),relative viability ([1]; first compound 0.253 µM),relative viability ([1]; first compound 0.8 µM),relative viability ([1]; first compound 2.53 µM),relative viability ([2]; first compound 0.08 µM),relative viability ([2]; first compound 0.253 µM),relative viability ([2]; first compound 0.8 µM),relative viability ([2]; first compound 2.53 µM),relative viability (Ricolinostat + Lapatinib; first compound 0.08 µM),relative viability (Ricolinostat + Lapatinib; first compound 0.253 µM),relative viability (Ricolinostat + Lapatinib; first compound 0.8 µM),relative viability (Ricolinostat + Lapatinib; first compound 2.53 µM)
NCI-H460,1.04,1.02,1.24,1.19,1.07,0.184,0.191,0.0967,0.0766,0.0274,0.0237,0.0543,0.0362,0.844,0.91,1.02,0.764
EBC-1,0.43,0.408,0.428,0.277,0.258,–,–,–,–,–,–,–,–,0.206,0.207,0.221,0.215
NCI-H23,0.753,0.763,0.832,0.608,0.713,0.532,0.509,0.448,0.615,–,0.203,0.214,0.169,1.16,1.25,0.998,0.773
NCI-H1437,1.05,1.07,1.11,1.07,0.893,0.357,0.311,0.282,0.227,0.984,1.08,1.12,0.92,0.705,0.767,0.714,0.642
EKVX,0.926,0.869,0.866,0.908,0.758,0.358,0.42,0.408,0.422,0.74,0.783,–,0.902,–,0.205,0.205,0.19
NCI-H1299,1.01,1.03,1.04,1.07,0.985,–,–,–,–,–,–,–,–,0.941,0.871,0.902,0.895
NCI-H1650,1.23,1.14,1.27,1.04,0.456,0.322,0.294,0.344,0.275,0.184,0.191,0.225,0.17,0.577,0.72,0.6,0.752
HARA,1.18,1.13,1.03,1.13,1.11,0.269,0.288,0.238,0.248,0.787,0.606,0.478,0.349,0.503,0.676,0.659,0.411
ChaGo-K-1,0.957,1.02,0.987,0.737,1.36,0.93,0.947,0.901,0.837,0.679,0.633,0.561,0.577,–,–,–,–
HCC-366,1.03,0.927,0.916,1.07,0.914,0.383,0.335,0.344,0.257,–,–,–,–,1.02,1.02,0.918,0.363
SW 900,–,–,–,–,–,0.432,0.481,0.453,0.487,0.166,0.164,0.183,0.17,–,–,–,–
